Assay results taken from ChEMBL document CHEMBL1146891, “Preparation of 1-(3-aminobenzo[d]isoxazol-5-yl)-1H-pyrazolo[4,3-d]pyrimidin-7(6H)-ones as potent, selective, and efficacious inhibitors of coagulation factor Xa” (Bioorg Med Chem Lett, 2006).

Experiments:
[1] = molecular target: T1, Coagulation factor VII/tissue factor (Homo sapiens) (UniProt P08709+P13726); assay: Anticoagulant activity in human plasma measured as prothrombin time; type: functional, cell-free
[2] = molecular target: T2, Coagulation factor X (Homo sapiens, UniProt P00742); assay: Binding affinity to human f10a
T2 sequence (P00742 41-179 limits assumed): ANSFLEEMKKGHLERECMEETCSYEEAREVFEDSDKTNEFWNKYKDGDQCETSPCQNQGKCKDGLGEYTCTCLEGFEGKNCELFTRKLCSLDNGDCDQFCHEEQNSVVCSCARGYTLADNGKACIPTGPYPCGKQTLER
T2 sequence (P00742 235-488 limits assumed): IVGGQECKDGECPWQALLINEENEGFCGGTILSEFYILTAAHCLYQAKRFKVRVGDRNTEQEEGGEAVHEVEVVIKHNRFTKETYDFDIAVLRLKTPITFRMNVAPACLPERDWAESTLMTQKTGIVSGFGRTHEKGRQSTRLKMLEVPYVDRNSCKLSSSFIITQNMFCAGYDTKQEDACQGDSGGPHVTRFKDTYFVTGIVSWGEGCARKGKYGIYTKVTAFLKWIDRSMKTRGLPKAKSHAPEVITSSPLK

[3] = molecular target: T2, Coagulation factor X; assay: Anticoagulant activity in human plasma measured as activated partial thromboplastin time; type: functional, cell-free
[4] = Bioavailability in dog at 0.5 mg/kg, iv and 0.2 mg/kg, po; type: ADME, organism-based, Canis lupus familiaris; conditions: in vivo
[5] = Apparent permeability in Caco-2 cells; type: ADME, cell-based; conditions: human
[6] = Volume of distribution in dog at 0.5 mg/kg, iv and 0.2 mg/kg, po; type: ADME, organism-based, Canis lupus familiaris; conditions: in vivo, read-out: Vdss
[7] = Clearance in dog at 0.5 mg/kg, iv and 0.2 mg/kg, po; type: ADME, organism-based, Canis lupus familiaris; conditions: in vivo
[8] = Half life in dog at 0.5 mg/kg, iv and 0.2 mg/kg, po; type: ADME, organism-based, Canis lupus familiaris; conditions: in vivo
[9] = species on record: Homo sapiens; assay: Selectivity for f10a over urokinase
[10] = species on record: Homo sapiens; assay: Selectivity for f10a over plasmin
[11] = molecular target: T1, Coagulation factor VII/tissue factor (Homo sapiens); assay: Anticoagulant activity in rabbit plasma measured as prothrombin time; type: functional, cell-free; conditions: Oryctolagus cuniculus, target entry is the homologue from another species
[12] = species on record: Homo sapiens; assay: Selectivity for f10a over activated protein C
[13] = species on record: Homo sapiens; assay: Selectivity for f10a over chymotrypsin
[14] = molecular target: Coagulation factor VII and X (Homo sapiens) (UniProt P00742+P08709); assay: Selectivity for f10a over f7a; type: protein assay
[15] = species on record: Homo sapiens; assay: Selectivity for f10a over tPA
[16] = molecular target: Thrombin and coagulation factor X (Homo sapiens) (UniProt P00734+P00742); assay: Selectivity for f10a over thrombin; type: protein assay
Chain of Thrombin and coagulation factor X (Homo sapiens) (P00742 whole entry, looked up, other chains not shown): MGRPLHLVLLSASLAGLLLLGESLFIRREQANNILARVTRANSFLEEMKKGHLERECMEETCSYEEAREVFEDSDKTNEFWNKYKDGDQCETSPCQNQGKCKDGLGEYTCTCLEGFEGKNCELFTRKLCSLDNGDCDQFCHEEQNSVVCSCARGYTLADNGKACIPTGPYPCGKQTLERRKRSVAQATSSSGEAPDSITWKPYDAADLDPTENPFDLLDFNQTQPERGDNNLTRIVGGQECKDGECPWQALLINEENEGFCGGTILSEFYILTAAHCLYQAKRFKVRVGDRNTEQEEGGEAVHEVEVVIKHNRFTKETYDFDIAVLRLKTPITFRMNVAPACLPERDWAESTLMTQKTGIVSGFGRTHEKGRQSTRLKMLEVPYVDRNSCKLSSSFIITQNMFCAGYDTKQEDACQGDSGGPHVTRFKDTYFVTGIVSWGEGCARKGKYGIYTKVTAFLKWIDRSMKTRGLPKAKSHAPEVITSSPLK

[17] = species on record: Homo sapiens; assay: Selectivity for f10a over trypsin
[18] = molecular target: Coagulation factor X and plasma kallikrein (Homo sapiens) (UniProt P03952+P00742); assay: Selectivity for f10a over plasma kallikrein; type: cell-free
Chain of Coagulation factor X and plasma kallikrein (Homo sapiens) (P00742 whole entry, looked up): as the sequence (P00742 whole entry, looked up, other chains not shown) above
Chain of Coagulation factor X and plasma kallikrein (Homo sapiens) (P03952 whole entry, looked up): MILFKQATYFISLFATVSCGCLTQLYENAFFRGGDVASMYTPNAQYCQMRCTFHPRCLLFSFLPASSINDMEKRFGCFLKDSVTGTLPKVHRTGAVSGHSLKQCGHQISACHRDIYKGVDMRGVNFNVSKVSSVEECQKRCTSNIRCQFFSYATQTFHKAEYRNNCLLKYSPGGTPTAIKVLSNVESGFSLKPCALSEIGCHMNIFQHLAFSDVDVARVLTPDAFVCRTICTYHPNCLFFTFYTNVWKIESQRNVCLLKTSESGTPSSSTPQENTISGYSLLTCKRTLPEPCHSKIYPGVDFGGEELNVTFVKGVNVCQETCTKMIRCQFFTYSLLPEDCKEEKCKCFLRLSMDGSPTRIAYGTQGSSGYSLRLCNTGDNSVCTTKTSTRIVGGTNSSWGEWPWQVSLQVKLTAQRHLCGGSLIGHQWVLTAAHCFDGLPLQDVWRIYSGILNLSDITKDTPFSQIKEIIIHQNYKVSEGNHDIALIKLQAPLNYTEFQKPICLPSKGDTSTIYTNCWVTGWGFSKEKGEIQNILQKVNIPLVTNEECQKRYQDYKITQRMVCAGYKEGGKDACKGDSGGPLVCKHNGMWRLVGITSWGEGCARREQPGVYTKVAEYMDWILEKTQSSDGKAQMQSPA

[19] = molecular target: Vitamin K-dependent protein C (Homo sapiens, UniProt P04070); assay: Binding affinity to human activated protein C
Chain of Vitamin K-dependent protein C (P04070 43-197 limits assumed): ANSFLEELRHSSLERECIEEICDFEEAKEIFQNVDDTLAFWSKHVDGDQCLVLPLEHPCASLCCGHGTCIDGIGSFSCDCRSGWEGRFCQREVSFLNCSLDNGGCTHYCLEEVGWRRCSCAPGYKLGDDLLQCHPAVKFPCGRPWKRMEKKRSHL
Chain of Vitamin K-dependent protein C (P04070 212-461 limits assumed): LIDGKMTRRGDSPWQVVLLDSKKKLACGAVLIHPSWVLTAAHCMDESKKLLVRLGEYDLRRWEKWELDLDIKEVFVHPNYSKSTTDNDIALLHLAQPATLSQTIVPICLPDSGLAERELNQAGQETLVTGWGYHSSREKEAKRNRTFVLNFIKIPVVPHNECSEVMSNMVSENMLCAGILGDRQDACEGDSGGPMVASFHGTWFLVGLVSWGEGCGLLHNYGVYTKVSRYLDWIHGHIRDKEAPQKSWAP

[20] = molecular target: Trypsin (Homo sapiens, UniProt P07477+P07478+P35030); assay: Binding affinity to human trypsin; type: protein assay
[21] = molecular target: Prothrombin (Homo sapiens, UniProt P00734); assay: Binding affinity to human thrombin
[22] = molecular target: Urokinase-type plasminogen activator (Homo sapiens, UniProt P00749); assay: Binding affinity to human urokinase
[23] = molecular target: Coagulation factor IX (Homo sapiens, UniProt P00740); assay: Binding affinity to human f9a
Chain of Coagulation factor IX (P00740 47-191 limits assumed): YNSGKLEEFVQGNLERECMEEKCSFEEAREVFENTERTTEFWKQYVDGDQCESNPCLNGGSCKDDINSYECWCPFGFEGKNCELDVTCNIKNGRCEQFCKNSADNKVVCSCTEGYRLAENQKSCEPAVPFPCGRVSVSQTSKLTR
Chain of Coagulation factor IX (P00740 227-461 limits assumed): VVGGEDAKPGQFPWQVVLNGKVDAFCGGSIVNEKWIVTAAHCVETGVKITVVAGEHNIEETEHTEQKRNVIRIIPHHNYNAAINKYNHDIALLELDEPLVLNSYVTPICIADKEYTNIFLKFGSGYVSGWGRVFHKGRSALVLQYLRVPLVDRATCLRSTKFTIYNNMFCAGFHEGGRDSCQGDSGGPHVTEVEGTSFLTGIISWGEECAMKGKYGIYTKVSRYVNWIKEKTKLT

[24] = molecular target: Tissue-type plasminogen activator (Homo sapiens, UniProt P00750); assay: Binding affinity to human tPA
Chain of Tissue-type plasminogen activator (P00750 whole entry): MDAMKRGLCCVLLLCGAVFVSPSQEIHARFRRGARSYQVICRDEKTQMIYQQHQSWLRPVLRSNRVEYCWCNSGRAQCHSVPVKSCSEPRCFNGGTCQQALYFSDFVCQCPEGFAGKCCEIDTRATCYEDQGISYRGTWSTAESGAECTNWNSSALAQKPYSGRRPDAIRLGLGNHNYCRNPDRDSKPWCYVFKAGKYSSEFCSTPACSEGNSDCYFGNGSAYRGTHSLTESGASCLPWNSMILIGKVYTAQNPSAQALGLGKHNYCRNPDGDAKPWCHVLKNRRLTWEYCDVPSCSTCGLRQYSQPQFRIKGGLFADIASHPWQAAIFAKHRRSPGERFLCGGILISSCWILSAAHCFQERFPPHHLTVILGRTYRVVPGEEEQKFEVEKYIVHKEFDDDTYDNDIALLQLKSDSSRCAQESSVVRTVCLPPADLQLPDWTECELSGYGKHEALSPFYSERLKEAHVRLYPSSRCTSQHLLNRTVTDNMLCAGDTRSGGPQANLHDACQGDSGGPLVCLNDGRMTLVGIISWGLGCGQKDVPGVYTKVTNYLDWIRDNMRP

[25] = molecular target: Plasminogen (Homo sapiens, UniProt P00747); assay: Binding affinity to human plasmin
Chain of Plasminogen (P00747 97-580 limits assumed): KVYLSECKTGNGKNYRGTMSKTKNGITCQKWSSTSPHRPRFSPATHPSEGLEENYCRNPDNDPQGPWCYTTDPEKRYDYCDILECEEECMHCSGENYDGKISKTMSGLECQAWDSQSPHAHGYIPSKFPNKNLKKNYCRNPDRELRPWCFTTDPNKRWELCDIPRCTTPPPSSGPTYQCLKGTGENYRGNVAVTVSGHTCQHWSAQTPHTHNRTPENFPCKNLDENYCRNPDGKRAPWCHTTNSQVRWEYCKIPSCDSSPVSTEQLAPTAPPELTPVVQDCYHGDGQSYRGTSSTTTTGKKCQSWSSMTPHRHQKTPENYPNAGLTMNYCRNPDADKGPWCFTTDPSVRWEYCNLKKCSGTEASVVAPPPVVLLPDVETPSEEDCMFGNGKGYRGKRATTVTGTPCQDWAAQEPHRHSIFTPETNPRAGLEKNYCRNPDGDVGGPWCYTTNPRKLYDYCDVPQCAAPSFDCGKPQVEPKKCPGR
Chain of Plasminogen (P00747 581-810 limits assumed): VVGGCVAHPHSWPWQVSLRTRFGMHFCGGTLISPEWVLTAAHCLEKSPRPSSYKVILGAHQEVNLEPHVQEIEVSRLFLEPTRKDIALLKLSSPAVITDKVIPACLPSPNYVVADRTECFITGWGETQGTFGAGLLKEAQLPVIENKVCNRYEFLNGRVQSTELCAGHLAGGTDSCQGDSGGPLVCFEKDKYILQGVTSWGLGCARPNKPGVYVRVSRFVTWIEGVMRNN

[26] = molecular target: Chymotrypsinogen B (Homo sapiens, UniProt P17538); assay: Binding affinity to human chymotrypsin
Chain of Chymotrypsinogen B (P17538 34-164 limits assumed, other chains not shown): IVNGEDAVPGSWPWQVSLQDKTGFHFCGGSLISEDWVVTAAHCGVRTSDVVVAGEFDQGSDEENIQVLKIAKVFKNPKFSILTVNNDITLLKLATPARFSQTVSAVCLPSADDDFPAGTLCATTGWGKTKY
Chain of Chymotrypsinogen B (P17538 167-263 limits assumed, other chains not shown): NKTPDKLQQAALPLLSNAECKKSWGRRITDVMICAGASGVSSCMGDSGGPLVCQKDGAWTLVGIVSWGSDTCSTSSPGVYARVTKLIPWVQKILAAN

Compound: Cc1nn(-c2ccc3onc(N)c3c2)c2c(=O)n(-c3ccc(-c4ccccc4CNCC4CC4)cc3)cnc12
- 2PT [1]: 3.1 µM
- Ki [2]: 1.7 nM
- 2aPTT [3]: 8.1 µM

Compound: CCOC(=O)c1nn(-c2ccc3onc(N)c3c2)c2c(=O)n(-c3ccc(-c4ccccc4CN4CCCC4)cc3)cnc12
- 2PT [1]: 2.3 µM
- Ki [2]: 1.6 nM
- 2aPTT [3]: 1.6 µM

Compound: Cc1nn(-c2ccc3onc(N)c3c2)c2c(=O)n(-c3ccc(-c4ccccc4CN4CCCC4)cc3)cnc12
- 2PT [1]: 1.1 µM
- Ki [2]: 1.3 nM
- 2aPTT [3]: 1.6 µM

Compound: Cc1nn(-c2ccc3onc(N)c3c2)c2c(=O)n(-c3ccc(-c4ccccc4CN(C)C)cc3)cnc12
- 2PT [1]: 1.3 µM
- 2aPTT [3]: 2.1 µM

Compound: Cc1nn(-c2ccc3onc(N)c3c2)c2c(=O)n(-c3ccc(-c4ccccc4CN(C)C(C)C)cc3)c(C)nc12
- 2PT [1]: 4 µM
- Ki [2]: 0.35 nM
- 2aPTT [3]: 2 µM

Compound: Cc1nn(-c2ccc3onc(N)c3c2)c2c(=O)n(-c3ccc(-c4ccccc4CN(C)C)cc3)cnc12.O=C(O)C(F)(F)F
- bioavailability [4]: 2%
- Papp [5]: 11 ×10⁻⁶ cm/s
- Vd [6]: 9.5 L/kg
- clearance [7]: 55 mL/min/kg
- half-life [8]: 2.5 h

Compound: CN(C)Cc1nccn1-c1ccc(-n2c(=O)[nH]c3c(C(F)(F)F)nn(-c4ccc5onc(N)c5c4)c3c2=O)c(F)c1
- 2PT [1]: 14.9 µM
- Ki [2]: 0.35 nM
- 2aPTT [3]: 37.8 µM

Compound: CN(C)Cc1ccccc1-c1ccc(N2CNc3c(C(F)(F)F)nn(-c4ccc5onc(N)c5c4)c3C2=O)cc1
- 2aPTT [3]: 1.7 µM

Compound: CN(C)Cc1ccccc1-c1ccc(-c2cnc3c(C(F)(F)F)nn(-c4ccc5onc(N)c5c4)c3c2O)cc1
- Ki [2]: 3.2 nM

Compound: Cc1nc2c(C(F)(F)F)nn(-c3ccc4onc(N)c4c3)c2c(=O)n1-c1ccc(-c2ccccc2CN2CC[C@@H](O)C2)cc1 [listing 1 of 2 here]
- Ki [2]: 0.18 nM

Compound: Cc1nn(-c2ccc3onc(N)c3c2)c2c(=O)n(-c3ccc(-c4ccccc4CN(C)C)cc3)c(C)nc12
- Ratio Ki [9]: > 1000
- 2PT [1]: 1.4 µM
- Ratio Ki [10]: > 1000
- 2PT [11]: 1.8 µM
- Ratio Ki [12]: > 1000
- Ratio Ki [13]: > 1000
- Ratio Ki [14]: > 1000
- 2aPTT [3]: 1.7 µM
- Ratio Ki [15]: > 1000
- Ratio Ki [16]: > 500
- Ratio Ki [17]: > 1000
- Ratio Ki [18]: > 1000

Compound: Cc1nn(-c2ccc3onc(N)c3c2)c2c(=O)n(-c3ccc(-c4ccccc4CN4CC[C@@H](O)C4)cc3)c(C)nc12.O=C(O)C(F)(F)F
- bioavailability [4]: 48%
- Papp [5]: 4.7 ×10⁻⁶ cm/s
- Vd [6]: 6.6 L/kg
- clearance [7]: 20 mL/min/kg
- half-life [8]: 3.8 h

Compound: Nc1noc2ccc(-n3nc(C(F)(F)F)c4c3C(=O)N(c3ccc(-c5ccccc5CN5CC[C@@H](O)C5)cc3)CN4)cc12 [listing 1 of 2 here]
- Ki [19]: > 20000 nM
- Ki [20]: > 4200 nM
- Ki [21]: 130 nM
- Ki [2]: 0.21 nM
- Ki [22]: > 13000 nM
- Ki [23]: > 41000 nM
- Ki [24]: > 33000 nM
- Ki [25]: > 15000 nM
- Ki [26]: 3240 nM

Compound: Nc1nc2c(C(F)(F)F)nn(-c3ccc4onc(N)c4c3)c2c(O)c1-c1ccc(-c2ccccc2CN2CCC(O)CC2)cc1
- 2PT [1]: 230 µM
- Ki [2]: 0.77 nM
- 2aPTT [3]: 638 µM

Compound: Cc1nn(-c2ccc3onc(N)c3c2)c2c(=O)n(-c3ccc(-c4ccccc4CN4CC[C@H](O)C4)cc3)cnc12
- 2PT [1]: 2.1 µM
- Ki [2]: 0.5 nM
- 2aPTT [3]: 4.3 µM

Compound: CN(C)Cc1ccccc1-c1ccc(-c2nnc3c(C(F)(F)F)nn(-c4ccc5onc(N)c5c4)c3c2O)cc1
- Ki [2]: 5.5 nM

Compound: Cc1nn(-c2ccc3onc(N)c3c2)c2c(=O)n(-c3ccc(-c4ccccc4CN(C)C)cc3)c(C)nc12.O=C(O)C(F)(F)F
- bioavailability [4]: 23%
- Papp [5]: 6.1 ×10⁻⁶ cm/s
- Vd [6]: 8.9 L/kg
- clearance [7]: 28.3 mL/min/kg
- half-life [8]: 4.2 h

Compound: Cc1nc2c(C(F)(F)F)nn(-c3ccc4onc(N)c4c3)c2c(=O)n1-c1ccc(-c2ccccc2CN2CC[C@@H](O)C2)cc1 [listing 2 of 2 here]
- 2PT [1]: 6.6 µM
- 2aPTT [3]: 28 µM

Compound: Cc1nc2c(C(F)(F)F)nn(-c3ccc4onc(N)c4c3)c2c(=O)n1-c1ccc(-c2ccccc2CN(C)C)cc1.O=C(O)C(F)(F)F
- bioavailability [4]: 63%
- Papp [5]: 19 ×10⁻⁶ cm/s
- Vd [6]: 13 L/kg
- clearance [7]: 11.7 mL/min/kg
- half-life [8]: 14 h

Compound: Cc1nc2c(C(F)(F)F)nn(-c3ccc4onc(N)c4c3)c2c(=O)n1-c1ccc(-c2ccccc2CN2CC[C@@H](O)C2)cc1.O=C(O)C(F)(F)F
- bioavailability [4]: 58%
- Vd [6]: 6.6 L/kg
- clearance [7]: 10 mL/min/kg
- half-life [8]: 8.4 h

Compound: Nc1noc2ccc(-n3nc(C(F)(F)F)c4c3C(=O)N(c3ccc(-c5ccccc5CN5CC[C@@H](O)C5)cc3)CN4)cc12 [listing 2 of 2 here]
- Ratio Ki [9]: > 1000
- 2PT [1]: 1.6 µM
- Ratio Ki [10]: > 1000
- Ratio Ki [12]: > 1000
- Ratio Ki [13]: > 1000
- Ratio Ki [14]: > 1000
- 2aPTT [3]: 2.9 µM
- Ratio Ki [15]: > 1000
- Ratio Ki [16]: > 500
- Ratio Ki [17]: > 1000
- Ratio Ki [18]: > 1000

Compound: Cc1nc2c(C(F)(F)F)nn(-c3ccc4onc(N)c4c3)c2c(=O)n1-c1ccc(-c2ccccc2CN(C)C)cc1
- 2PT [1]: 4.1 µM
- 2PT [11]: 2.7 µM
- 2aPTT [3]: 9.2 µM

Compound: Nc1noc2ccc(-n3nc(C(F)(F)F)c4c3C(=O)N(c3ccc(-c5ccccc5CN5CC[C@@H](O)C5)cc3)CN4)cc12.O=C(O)C(F)(F)F
- bioavailability [4]: 27%
- Papp [5]: 3.9 ×10⁻⁶ cm/s
- Vd [6]: 4.2 L/kg
- clearance [7]: 16.3 mL/min/kg
- half-life [8]: 4.3 h

Compound: Cc1nc2c(C(F)(F)F)nn(-c3ccc4onc(N)c4c3)c2c(=O)n1-c1ccc(-c2ccccc2CNCC2CC2)cc1
- 2PT [1]: 10.9 µM
- Ki [2]: 0.5 nM
- 2aPTT [3]: 18.6 µM

Compound: Nc1noc2ccc(-n3nc(C(F)(F)F)c4[nH]c(=O)n(-c5ccc(-c6ccccc6CN6CC[C@@H](O)C6)cc5)c(=O)c43)cc12
- 2PT [1]: 24.1 µM
- Ki [2]: 0.11 nM
- 2aPTT [3]: 74.5 µM

Compound: Cc1nn(-c2ccc3onc(N)c3c2)c2c(=O)n(-c3ccc(-c4ccccc4CNC(C)C)cc3)cnc12
- 2PT [1]: 1.9 µM
- Ki [2]: 1.5 nM
- 2aPTT [3]: 3 µM

Compound: Nc1noc2ccc(-n3nc(C(F)(F)F)c4[nH]c(=O)n(-c5ccc(-c6ccccc6CN6CCC(O)CC6)cc5)c(=O)c43)cc12
- 2PT [1]: 92.6 µM
- Ki [2]: 0.22 nM
- 2aPTT [3]: 352 µM
